In the supplement of paper PMC10627819:

Assays:
Assay in all cases: fitness (endpoint OD595 vs no drug) (fraction); higher = more growth
[1] = system: S. pneumoniae D39V
In short: (§1)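 Fitness is computed from the optical density at which cultures reach stationary phase, divided by the robust mean of no-drug control wells. Any value above 1 is set to 1. Cultures started at OD595 0.01 in 384-well plates with TSB, LB Lennox or CY at 37 °C, and OD595 was read every 30 min for 14 h against a first-reading background.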

[2] = system: S. aureus DSM 20231
In short: as §1

[3] = system: B. subtilis 168
In short: as §1

[4] = first compound 250 µg/mL, partner 1 µg/mL
[5] = first compound 250 µg/mL, partner 2 µg/mL
[6] = first compound 250 µg/mL, partner 4 µg/mL
[7] = first compound 500 µg/mL, partner 1 µg/mL
[8] = first compound 1000 µg/mL, partner 1 µg/mL
[9] = first compound 1000 µg/mL, partner 2 µg/mL
[10] = first compound 250 µg/mL, partner 1.25 µg/mL
[11] = first compound 250 µg/mL, partner 2.5 µg/mL
[12] = first compound 500 µg/mL, partner 1.25 µg/mL
[13] = first compound 500 µg/mL, partner 2.5 µg/mL
[14] = first compound 250 µg/mL, partner 0.0625 µg/mL
[15] = first compound 500 µg/mL, partner 0.0625 µg/mL
[16] = first compound 1000 µg/mL, partner 0.0625 µg/mL
[17] = first compound 250 µg/mL, partner 0.125 µg/mL
[18] = first compound 250 µg/mL, partner 0.25 µg/mL
[19] = first compound 500 µg/mL, partner 0.25 µg/mL
[20] = first compound 1000 µg/mL, partner 0.25 µg/mL
[21] = first compound 250 µg/mL, partner 12.5 µg/mL
[22] = first compound 250 µg/mL, partner 25 µg/mL
[23] = first compound 250 µg/mL, partner 50 µg/mL
[24] = first compound 500 µg/mL, partner 12.5 µg/mL
[25] = first compound 500 µg/mL, partner 25 µg/mL
[26] = first compound 500 µg/mL, partner 50 µg/mL
[27] = first compound 0.012 µg/mL, partner 0.5 µg/mL, one replicate
[28] = first compound 0.012 µg/mL, partner 1 µg/mL, one replicate
[29] = first compound 0.024 µg/mL, partner 0.5 µg/mL, one replicate
[30] = first compound 0.024 µg/mL, partner 1 µg/mL, one replicate
[31] = first compound 0.048 µg/mL, partner 0.5 µg/mL, one replicate
[32] = first compound 0.048 µg/mL, partner 1 µg/mL, one replicate
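Note: OD595 on entry to stationary phase over no-drug wells; at most 1.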

SMILES: CC(=O)Oc1ccccc1C(=O)O [Acetylsalicylic acid] + Cc1cc(NS(=O)(=O)c2ccc(N)cc2)no1 [Sulfamethoxazol]
- fitness [1, 4]: 0.941
- fitness [1, 5]: 0.946
- fitness [1, 6]: 0.909
- fitness [1, 7]: 0.905
- fitness ([1]; first compound 500 µg/mL, partner 2 µg/mL): 0.926
- fitness ([1]; first compound 500 µg/mL, partner 4 µg/mL): 0.872
- fitness [1, 8]: 0.78
- fitness [1, 9]: 0.811
- fitness ([1]; first compound 1000 µg/mL, partner 4 µg/mL): 0.842
- fitness [2, 4]: 0.862
- fitness [2, 5]: 0.855
- fitness [2, 6]: 0.844
- fitness [2, 7]: 0.683
- fitness [2, 8]: 0.53
- fitness [2, 9]: 0.522

SMILES: CC(=O)Oc1ccccc1C(=O)O [Acetylsalicylic acid] + Cc1ncc([N+](=O)[O-])n1CCO [Metronidazole]
- fitness ([1]; first compound 250 µg/mL, partner 1.073 µg/mL): 0.982
- fitness [1, 10]: 0.971
- fitness ([1]; first compound 250 µg/mL, partner 2.145 µg/mL): 0.959
- fitness [1, 11]: 0.989
- fitness ([1]; first compound 250 µg/mL, partner 4.29 µg/mL): 0.937
- fitness ([1]; first compound 250 µg/mL, partner 5 µg/mL): 0.972
- fitness ([1]; first compound 500 µg/mL, partner 1.073 µg/mL): 0.979
- fitness [1, 12]: 0.975
- fitness ([1]; first compound 500 µg/mL, partner 2.145 µg/mL): 0.965
- fitness [1, 13]: 1
- fitness ([1]; first compound 500 µg/mL, partner 4.29 µg/mL): 0.975
- fitness ([1]; first compound 500 µg/mL, partner 5 µg/mL): 0.965
- fitness ([1]; first compound 1000 µg/mL, partner 1.073 µg/mL): 0.946
- fitness ([1]; first compound 1000 µg/mL, partner 1.25 µg/mL): 0.906
- fitness ([1]; first compound 1000 µg/mL, partner 2.145 µg/mL): 0.936
- fitness ([1]; first compound 1000 µg/mL, partner 2.5 µg/mL): 0.914
- fitness ([1]; first compound 1000 µg/mL, partner 4.29 µg/mL): 0.932
- fitness ([1]; first compound 1000 µg/mL, partner 5 µg/mL): 0.915
- fitness ([2]; first compound 250 µg/mL, partner 0.625 µg/mL): 0.939
- fitness [2, 10]: ≥ 1
- fitness [2, 11]: ≥ 1
- fitness ([2]; first compound 500 µg/mL, partner 0.625 µg/mL): 0.778
- fitness [2, 12]: 0.791
- fitness [2, 13]: 0.759

SMILES: CC(=O)Oc1ccccc1C(=O)O [Acetylsalicylic acid] + Cc1onc(-c2ccccc2)c1C(=O)N[C@@H]1C(=O)N2[C@@H]1SC(C)(C)[C@@H]2C(=O)O [Oxacillin]
- fitness ([1]; first compound 250 µg/mL, partner 0.005 µg/mL): 0.987
- fitness ([1]; first compound 250 µg/mL, partner 0.01 µg/mL): 0.969
- fitness ([1]; first compound 250 µg/mL, partner 0.02 µg/mL): 0.886
- fitness ([1]; first compound 250 µg/mL, partner 0.04 µg/mL): 0.501
- fitness ([1]; first compound 500 µg/mL, partner 0.005 µg/mL): 0.959
- fitness ([1]; first compound 500 µg/mL, partner 0.01 µg/mL): 0.984
- fitness ([1]; first compound 500 µg/mL, partner 0.02 µg/mL): 0.91
- fitness ([1]; first compound 500 µg/mL, partner 0.04 µg/mL): 0.643
- fitness ([1]; first compound 1000 µg/mL, partner 0.005 µg/mL): 0.921
- fitness ([2]; first compound 250 µg/mL, partner 0.0156 µg/mL): 0.763
- fitness ([2]; first compound 250 µg/mL, partner 0.0312 µg/mL): 0.583
- fitness [2, 14]: 0.494
- fitness ([2]; first compound 500 µg/mL, partner 0.0156 µg/mL): 0.656
- fitness ([2]; first compound 500 µg/mL, partner 0.0312 µg/mL): 0.548
- fitness [2, 15]: 0.508
- fitness ([2]; first compound 1000 µg/mL, partner 0.0156 µg/mL): 0.561
- fitness ([2]; first compound 1000 µg/mL, partner 0.0312 µg/mL): 0.519
- fitness [2, 16]: 0.393

SMILES: CC(=O)Oc1ccccc1C(=O)O [Acetylsalicylic acid] + Cn1nnc(-c2ccc(-c3ccc(N4C[C@H](CO)OC4=O)cc3F)cn2)n1 [Tedizolid]
- fitness ([1]; first compound 250 µg/mL, partner 0.03125 µg/mL): 0.968
- fitness [1, 14]: 0.989
- fitness [1, 17]: 0.864
- fitness [1, 18]: 0.534
- fitness ([1]; first compound 250 µg/mL, partner 0.5 µg/mL): 0.208
- fitness ([1]; first compound 500 µg/mL, partner 0.03125 µg/mL): 0.989
- fitness [1, 15]: 0.986
- fitness ([1]; first compound 500 µg/mL, partner 0.125 µg/mL): 0.789
- fitness [1, 19]: 0.472
- fitness ([1]; first compound 500 µg/mL, partner 0.5 µg/mL): 0.175
- fitness ([1]; first compound 1000 µg/mL, partner 0.03125 µg/mL): 0.966
- fitness [1, 16]: 0.962
- fitness ([1]; first compound 1000 µg/mL, partner 0.125 µg/mL): 0.728
- fitness [1, 20]: 0.385
- fitness ([1]; first compound 1000 µg/mL, partner 0.5 µg/mL): 0.16
- fitness [2, 14]: 0.839
- fitness [2, 17]: 0.778
- fitness [2, 18]: 0.403
- fitness [2, 19]: 0.327
- fitness [2, 20]: 0.128

SMILES: CC(=O)Oc1ccccc1C(=O)O [Acetylsalicylic acid] + O=C(O[C@@H]1Cc2c(O)cc(O)cc2O[C@@H]1c1cc(O)c(O)c(O)c1)c1cc(O)c(O)c(O)c1 [EGCG]
- fitness [1, 21]: 0.955
- fitness [1, 22]: 0.935
- fitness [1, 23]: 0.914
- fitness [1, 24]: 0.927
- fitness [1, 25]: 0.929
- fitness [1, 26]: 0.851
- fitness [2, 21]: 0.764
- fitness [2, 22]: 0.774
- fitness [2, 23]: 0.766
- fitness [2, 24]: 0.735
- fitness [2, 25]: 0.767
- fitness [2, 26]: 0.72
- fitness ([2]; first compound 1000 µg/mL, partner 12.5 µg/mL): 0.616
- fitness ([2]; first compound 1000 µg/mL, partner 25 µg/mL): 0.621
- fitness ([2]; first compound 1000 µg/mL, partner 50 µg/mL): 0.598

SMILES: CN(C)[C@@H]1C(O)=C(C(N)=O)C(=O)[C@@]2(O)C(O)=C3C(=O)c4c(O)ccc(Cl)c4[C@@](C)(O)[C@H]3C[C@@H]12 [Chlortetracycline] + CC1=C\[C@@H](O)CC(=O)Cc2nc(co2)C(=O)N2CCC=C2C(=O)O[C@H](C(C)C)[C@H](C)/C=C/C(=O)NC\C=C\1 [Virginiamycin M1]
- fitness ([3]; first compound 0.0475 µg/mL, partner 0.0625 µg/mL): 0.874
- fitness ([3]; first compound 0.0475 µg/mL, partner 0.125 µg/mL): 0.898
- fitness ([3]; first compound 0.0475 µg/mL, partner 0.25 µg/mL): 0.87
- fitness ([3]; first compound 0.095 µg/mL, partner 0.0625 µg/mL): 0.823
- fitness ([3]; first compound 0.095 µg/mL, partner 0.125 µg/mL): 0.725
- fitness ([3]; first compound 0.095 µg/mL, partner 0.25 µg/mL): 0.759
- fitness ([3]; first compound 0.19 µg/mL, partner 0.0625 µg/mL): 0.55
- fitness ([3]; first compound 0.19 µg/mL, partner 0.125 µg/mL): 0.547
- fitness ([3]; first compound 0.19 µg/mL, partner 0.25 µg/mL): 0.568
- fitness ([1]; first compound 0.012 µg/mL, partner 0.15 µg/mL, one replicate): 0.955
- fitness ([1]; first compound 0.012 µg/mL, partner 0.3 µg/mL, one replicate): 0.86
- fitness [1, 27]: 0.889
- fitness [1, 28]: 0.88
- fitness ([1]; first compound 0.012 µg/mL, partner 2 µg/mL): 0.817
- fitness ([1]; first compound 0.024 µg/mL, partner 0.15 µg/mL, one replicate): 0.895
- fitness ([1]; first compound 0.024 µg/mL, partner 0.3 µg/mL, one replicate): 0.859
- fitness [1, 29]: 0.89
- fitness [1, 30]: 0.845
- fitness ([1]; first compound 0.024 µg/mL, partner 2 µg/mL): 0.787
- fitness ([1]; first compound 0.048 µg/mL, partner 0.15 µg/mL, one replicate): 0.825
- fitness ([1]; first compound 0.048 µg/mL, partner 0.3 µg/mL, one replicate): 0.782
- fitness [1, 31]: 0.848
- fitness [1, 32]: 0.761
- fitness ([1]; first compound 0.048 µg/mL, partner 2 µg/mL): 0.74
- fitness ([1]; first compound 0.375 µg/mL, partner 0.5 µg/mL): 0.025
- fitness ([1]; first compound 0.375 µg/mL, partner 1 µg/mL): 0.0379
- fitness ([1]; first compound 0.375 µg/mL, partner 2 µg/mL): 0.0569
- fitness ([1]; first compound 0.75 µg/mL, partner 0.5 µg/mL): 0.0422
- fitness ([1]; first compound 0.75 µg/mL, partner 1 µg/mL): 0.0446
- fitness ([1]; first compound 0.75 µg/mL, partner 2 µg/mL): 0.0829
- fitness ([1]; first compound 1.5 µg/mL, partner 0.5 µg/mL): 0.0504
- fitness ([1]; first compound 1.5 µg/mL, partner 1 µg/mL): 0.0561
- fitness ([1]; first compound 1.5 µg/mL, partner 2 µg/mL): 0.0443
- fitness ([2]; first compound 0.006 µg/mL, partner 0.0625 µg/mL, one replicate): 0.776
- fitness ([2]; first compound 0.006 µg/mL, partner 0.125 µg/mL, one replicate): 0.785
- fitness ([2]; first compound 0.006 µg/mL, partner 0.25 µg/mL, one replicate): 0.809
- fitness ([2]; first compound 0.012 µg/mL, partner 0.0625 µg/mL): 0.565
- fitness ([2]; first compound 0.012 µg/mL, partner 0.125 µg/mL): 0.533
- fitness ([2]; first compound 0.012 µg/mL, partner 0.25 µg/mL): 0.567
- fitness [2, 27]: 0.495
- fitness [2, 28]: 0.462
- fitness ([2]; first compound 0.024 µg/mL, partner 0.0625 µg/mL): 0.191
- fitness ([2]; first compound 0.024 µg/mL, partner 0.125 µg/mL): 0.183
- fitness ([2]; first compound 0.024 µg/mL, partner 0.25 µg/mL): 0.188
- fitness [2, 29]: 0.146
- fitness [2, 30]: 0.284
- fitness ([2]; first compound 0.048 µg/mL, partner 0.0625 µg/mL): 0.0421
- fitness ([2]; first compound 0.048 µg/mL, partner 0.125 µg/mL): 0.0556
- fitness ([2]; first compound 0.048 µg/mL, partner 0.25 µg/mL): 0.0619
- fitness [2, 31]: 0.0554
- fitness [2, 32]: 0.263
